Results taken from patent US6858748B1, “Treatment of colon cancer” (Research Foundation of the University of Central Florida, priority 2001, dated 2005).

Legend:
[1] = tested on: human colon cancer cells (ATCC CCL220); experiment: Cytotoxicity assay (MTS/PMS growth inhibition); format: cell-based; settings: approximately 48 hours with test compound, MTS/PMS readout, concentration not given
Procedure: The antitumor activity against human colon cancer cells of the novel compounds (as earlier reported) was realized by the following procedure which determines the inhibitory effect of test samples on the growth of human colon cancer cells (ATCC CCL220). The CCL220 cells are grown in RPMI 1640 media+10% Fetal bovine serum+1% Antibiotic/Antimycotic for approximately 48 hours at 37° C./5% CO2 in the presence of the test compound.
Growth/Non-Growth of the cells (e.g., cell density) is determined using Promega's MTS/PMS assay system. MTS (3-(4,5-dimethylthiazol-2-yl)-5-(3-carboxymethoxyphenyl)-2-(4-sulfophenyl)-2H-tetrazolium, inner salt) is an aqueous compound that is reduced to soluble formazan by the presence of NADH formed by dehydrogenases present within the CCL220 cells. The absorbance of the formazan can be measured at 490 nm and is directly proportional to the number of living cells present in the culture. PMS (Phenazine Methosulfate) is added an electron coupling reagent and greatly increases the rate of reduction. […]
In order to establish the accuracy of this assay a Positive Control consisting of 50 μM Methotrexate should not decrease the net absorbance to less than 90% of the Negative Control (CCL220 cells are somewhat resistant to methotrexate) is utilized.

[2] = tested on: white mice; experiment: Animal toxicity bioassay (acute toxicity, intraperitoneal); format: in vivo; settings: 14 days observation, Litchfield and Wilkinson
Procedure: Acute toxicity was studied on white mice of both sexes with weight ranging between 18-26 grams under intraperitoneal injection of 2% solution of tested compound in starch (the compound was dissolved in starch slime and injected) on the basis of 0.1 ml of solution per 10 g of the animal weight Each dose was tested on the group of 6 animals that were observed during 14 days period. (This method was approved by the Pharmacology committee of Russian Ministry of Health and has been widely used since 1968.) Averaged lethal dose (LD50) of the compound was computed using results of experiments on 5-7 groups of animals using method of Litchfield and Wilkinson. (Belenkii M. L. “Elements of quantative determination of the pharmacological effect,” Leningrad, 1963, 71 pages).

[3] = Solubility in organic solvents; format: physicochemical
[4] = Stability in solution; format: physicochemical; settings: decomposes quickly when solution is heated or stored for a long time, forming OF-12
[5] = tested on: Mice; settings: cited from earlier work

## CCOc1ccc(C(Cl)=CC(=NN=C2c3ccccc3-c3ccccc32)C(=O)OC)cc1 [3F-19, 4-Chloro-4-(4-ethoxy-phenyl)-2-(fluoren-9-ylidene-hydrazono)-but-3-enoic acid methyl ester]
[1]
  percent activity against human colon cancer: 100%
[2]
  LD50: > 200 mg/kg

## CCOc1ccc(C(=O)CC(O)(NN=C2c3ccccc3-c3ccccc32)C(=O)OC)cc1 (centres unmarked) [OF-13, 4-(4-Ethoxy-phenyl)-2-(N′-fluoren-9-ylidene-hydrazino)-2-hydroxy-4-oxo-butyric acid methyl ester]
[1]
  percent activity against human colon cancer: 100%
[2]
  LD50: > 1500 mg/kg
[3]; DMSO, DMFA, dichloroethane, acetonitrile
  Solubility: highly soluble
[3]; hexane
  Solubility: insoluble
[4]
  Stability in solutions: not stable in solutions

## O=c1[nH]cc(F)c(=O)[nH]1 [5-FU, fluorouracil]
[5]
  IPN-Mice LD50: 230 mg/kg
